Experimental data from patent publication US10358436B2, “Kinase inhibitors and method of treating cancer” (University Health Network, priority 2010, dated 2019).
pIC50: −log10 of the molar value. Like-named read-outs stand apart in the source and are kept apart here.

Columns and labels:
Type in all cases: biochemical
Aurora B = Aurora B (Homo sapiens (Human), UniProt Q96GD4); experiment: Aurora B inhibition assay (Z-Lyte)
Aurora A = Aurora A (Homo sapiens (Human), UniProt O14965); experiment: Aurora A inhibition assay (Z-Lyte)
human PLK4 = human PLK4 (Homo sapiens (Human), UniProt O00444); experiment: PLK4 inhibition assay (indirect ELISA)
human PLK4, sequence (O00444 1-391): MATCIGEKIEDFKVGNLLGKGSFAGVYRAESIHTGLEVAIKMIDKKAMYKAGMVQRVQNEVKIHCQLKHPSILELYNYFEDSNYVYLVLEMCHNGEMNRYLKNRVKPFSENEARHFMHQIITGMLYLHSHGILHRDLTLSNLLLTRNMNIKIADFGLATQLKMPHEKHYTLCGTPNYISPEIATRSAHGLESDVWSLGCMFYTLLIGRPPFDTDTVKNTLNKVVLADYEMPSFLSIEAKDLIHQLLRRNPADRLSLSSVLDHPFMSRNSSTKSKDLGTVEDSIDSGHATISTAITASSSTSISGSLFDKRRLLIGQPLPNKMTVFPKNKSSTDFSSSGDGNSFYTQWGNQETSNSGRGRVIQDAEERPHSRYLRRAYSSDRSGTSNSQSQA

Aurora B, sequence (Q96GD4 whole entry): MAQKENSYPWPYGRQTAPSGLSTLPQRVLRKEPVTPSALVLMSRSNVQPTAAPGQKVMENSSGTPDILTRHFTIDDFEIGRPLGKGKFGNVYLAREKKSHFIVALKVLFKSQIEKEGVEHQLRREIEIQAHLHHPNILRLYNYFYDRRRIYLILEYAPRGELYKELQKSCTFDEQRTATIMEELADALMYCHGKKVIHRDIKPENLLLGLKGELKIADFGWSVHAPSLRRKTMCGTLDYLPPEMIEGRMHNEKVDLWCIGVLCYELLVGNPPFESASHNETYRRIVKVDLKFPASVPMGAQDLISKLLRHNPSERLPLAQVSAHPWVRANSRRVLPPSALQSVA
Aurora A, sequence (O14965 whole entry): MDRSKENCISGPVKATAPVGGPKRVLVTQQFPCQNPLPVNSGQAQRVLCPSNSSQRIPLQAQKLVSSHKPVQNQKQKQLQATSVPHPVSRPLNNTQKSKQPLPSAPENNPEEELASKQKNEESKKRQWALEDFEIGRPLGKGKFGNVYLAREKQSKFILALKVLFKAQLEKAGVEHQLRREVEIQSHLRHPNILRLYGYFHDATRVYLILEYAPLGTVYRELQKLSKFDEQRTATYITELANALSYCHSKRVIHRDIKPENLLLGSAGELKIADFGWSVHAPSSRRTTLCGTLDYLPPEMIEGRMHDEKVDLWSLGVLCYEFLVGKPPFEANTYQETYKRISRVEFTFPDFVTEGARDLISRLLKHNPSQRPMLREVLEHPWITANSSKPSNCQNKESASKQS

Structure (SMILES)	pIC50 (Aurora B; read-out: Aurora B IC50 Ranges)	inhibition at 1 µM (Aurora A) [%]	pIC50 (human PLK4; read-out: PLK4 IC50 Ranges)	pIC50 (human PLK4)	pIC50 (Aurora B)
COc1ccc2c(c1)[C@]1(C[C@H]1c1ccc3c(-c4ccc(N5CCNCC5)nc4)n[nH]c3c1)C(=O)N2 (relative stereo) [Example A21, 4-(5-(6-((1R*,2S*)-5′-Methoxy-2′-oxospiro[cyclopropane-1,3′-indoline]-2-yl)-1H-indazol-3-yl)pyridinium-2-yl)piperazine bis(2,2,2-trifluoroacetate)]	> 7.00	< 50	> 7.00	–	–
COc1ccc2c(c1)[C@]1(C[C@H]1c1ccc3c(-c4ccnc(N5CCN(C)CC5)c4)n[nH]c3c1)C(=O)N2 (relative stereo) [Example A37, (1R*,2S*)-5′-Methoxy-2-(3-(2-(4-methylpiperazin-1-yl)pyridin-4-yl)-1H-indazol-6-yl)spiro[cyclopropane-1,3′-indolin]-2′-one]	> 7.00	< 50	> 7.00	–	–
COc1ccc2c(c1)[C@]1(C[C@H]1c1ccc3c(-c4ccc(N5CCN(C)CC5)cc4)n[nH]c3c1)C(=O)N2 (relative stereo) [Example A38, (1R*,2S*)-5′-Methoxy-2-(3-(4-(4-methylpiperazin-1-yl)phenyl)-1H-indazol-6-yl)spiro[cyclopropane-1,3′-indolin]-2′-one]	> 7.00	< 50	–	> 7.00	–
COc1ccc2c(c1)[C@]1(C[C@H]1c1ccc3c(-c4cccc(CO)c4)n[nH]c3c1)C(=O)N2 (relative stereo) [Example A43, (1R*,2S*)-2-(3-(3-(hydroxymethyl)phenyl)-1H-indazol-6-yl)-5′-methoxy spiro[cyclopropane-1,3′-indolin]-2′-one 2,2,2-trifluoroacetate]	> 7.00	< 50	> 7.00	–	–
CN1CCN(c2ccc(-c3n[nH]c4cc([C@@H]5C[C@@]56C(=O)Nc5ccc(N)cc56)ccc34)cc2)CC1 (relative stereo) [Example A86, (1R*,2S*)-5′-amino-2-(3-(4-(4-methylpiperazin-1-yl)phenyl)-1H-indazol-6-yl)spiro[cyclopropane-1,3′-indolin]-2′-one]	6.00 to 7.00	> 50	> 7.00	–	–
CN1C(=O)[C@@]2(C[C@H]2c2ccc3c(/C=C/c4ccc(N5CCNCC5)cc4)n[nH]c3c2)c2ccccc21 (relative stereo) [Example A89, (1R*,2S*)-(E)-1′-methyl-2-(3-(4-(piperazin-1-yl)styryl)-1H-indazol-6-yl)spiro[cyclopropane-1,3′-indolin]-2′-one 2,2,2-trifluoroacetate]	–	> 50	–	> 7.00	> 7.00
O=C1Nc2ccccc2[C@]12C[C@H]2c1ccc2c(/C=C/c3ccc(N4CCNCC4)cc3)n[nH]c2c1 (relative stereo) [Example A91, (1R*,2S*)-(E)-2-(3-(4-(piperazin-1-yl)styryl)-1H-indazol-6-yl)spiro[cyclopropane-1,3′-indolin]-2′-one 2,2,2-trifluoroacetate]	> 7.00	> 50	–	> 7.00	–
CN1CCN(c2ccc(-c3n[nH]c4cc([C@@H]5C[C@@]56C(=O)N(C)c5ccccc56)ccc34)cn2)CC1 (relative stereo) [Example A93, (1R*,2S*)-1′-methyl-2-(3-(6-(4-methylpiperazin-1-yl)pyridin-3-yl)-1H-indazol-6-yl)spiro[cyclopropane-1,3′-indolin]-2′-one bis(2,2,2-trifluoroacetate)]	> 7.00	> 50	> 7.00	–	–
CN1C(=O)[C@@]2(C[C@H]2c2ccc3c(/C=C/c4ccc(CN5CCCCC5)cc4)n[nH]c3c2)c2ccccc21 (relative stereo) [Example A95, (1R*,2S*)-(E)-1′-methyl-2-(3-(4-(piperidin-1-ylmethyl)styryl)-1H-indazol-6-yl)spiro[cyclopropane-1,3′-indolin]-2′-one 2,2,2-trifluoroacetate]	> 7.00	–	> 7.00	–	–
CCc1ccc2c(c1)[C@]1(C[C@H]1c1ccc3c(-c4ccc(N5CCN(C)CC5)cc4)n[nH]c3c1)C(=O)N2 (relative stereo) [Example A142, (1R*,2S*)-5′-ethyl-2-(3-(4-(4-methylpiperazin-1-yl)phenyl)-1H-indazol-6-yl)spiro[cyclopropane-1,3′-indolin]-2′-one 2,2,2-trifluoroacetate]	> 7.00	–	> 7.00	–	–
COc1cc2c(cc1OC)[C@]1(C[C@H]1c1ccc3c(-c4cccc(CN5CCOCC5)c4)n[nH]c3c1)C(=O)N2 (relative stereo) [Example A143, (1R*,2S*)-5′,6′-dimethoxy-2-(3-(3-(morpholinomethyl)phenyl)-1H-indazol-6-yl)spiro[cyclopropane-1,3′-indolin]-2′-one 2,2,2-trifluoroacetate]	–	–	< 6.00	–	–
CN1CCN(c2ccc(/C=C/c3n[nH]c4cc([C@@H]5C[C@@]56C(=O)Nc5ccccc56)ccc34)cn2)CC1 (relative stereo) [Example A157, (1R*,2S*)-2-(3-((E)-2-(6-(4-methylpiperazin-1-yl)pyridin-3-yl)vinyl)-1H-indazol-6-yl)spiro[cyclopropane-1,3′-indolin]-2′-one bis-2,2,2-trifluoroacetate]	–	> 50	> 7.00	–	–
CN1CCN(c2ccc(-c3n[nH]c4cc([C@@H]5C[C@@]56C(=O)Nc5ccc(C(F)(F)F)cc56)ccc34)cc2)CC1 (relative stereo) [Example A170, (1R*,2S*)-2-(3-(4-(4-methylpiperazin-1-yl)phenyl)-1H-indazol-6-yl)-5′-(trifluoromethyl)spiro[cyclopropane-1,3′-indolin]-2′-one 2,2,2-trifluoroacetate]	–	–	6.00 to 7.00	–	–
CN(C)Cc1ccc(/C=C/c2n[nH]c3cc([C@@H]4C[C@@]45C(=O)Nc4ncccc45)ccc23)cc1 (relative stereo) [Example A172, (1R*,2S*)-(E)-2-(3-(4-((dimethylamino)methyl)styryl)-1H-indazol-6-yl)spiro[cyclopropane-1,3′-pyrrolo[2,3-b]pyridin]-2′(1′H)-one 2,2,2-trifluoroacetate]	> 7.00	–	> 7.00	–	–
O=C1Nc2ccccc2[C@]12C[C@H]2c1ccc2c(/C=C/c3ccc(CCN4CCOCC4)cc3)n[nH]c2c1 [Example A205, (1R,2S)-(E)-2-(3-(4-(2-morpholinoethyl)styryl)-1H-indazol-6-yl)spiro[cyclopropane-1,3′-indolin]-2′-one 2,2,2-trifluoroacetate]	–	> 50	–	–	–
COc1ccc2c(c1)[C@]1(C[C@H]1c1ccc3c(/C=C/c4cc(F)c(CN5CCOCC5)c(F)c4)n[nH]c3c1)C(=O)N2 [Example A218, (1R,2S)-(E)-2-(3-(3,5-difluoro-4-(morpholinomethyl)styryl)-1H-indazol-6-yl)-5′-methoxyspiro[cyclopropane-1,3′-indolin]-2′-one 2,2,2-trifluoroacetate]	–	> 50	–	–	–

Second part, led by results:

pIC50 (Aurora B; read-out: Aurora B IC50 Ranges)	inhibition at 1 µM (Aurora A) [%]	pIC50 (human PLK4; read-out: PLK4 IC50 Ranges)	Structure (SMILES)	pIC50 (human PLK4)	pIC50 (Aurora B)
–	> 50	–	O=C1Nc2ccccc2[C@]12C[C@H]2c1ccc2c(/C=C/c3ccc(CN4CCOCC4)c(F)c3)n[nH]c2c1 [Example A200, (1R,2S)-(E)-2-(3-(3-fluoro-4-(morpholinomethyl)styryl)-1H-indazol-6-yl)spiro[cyclopropane-1,3′-indolin]-2′-one 2,2,2-trifluoroacetate]	–	–
–	> 50	–	C[C@@H]1CCC[C@H](C)N1Cc1ccc(/C=C/c2n[nH]c3cc([C@@H]4C[C@@]45C(=O)Nc4ccccc45)ccc23)cc1 [Example A201, (1R,2S)-(E)-2-(3-(4-((cis-2,6-dimethylpiperidin-1-yl)methyl)styryl)-1H-indazol-6-yl)spiro[cyclopropane-1,3′-indolin]-2′-one 2,2,2-trifluoroacetate]	–	–
–	> 50	–	O=C1Nc2ccccc2[C@]12C[C@H]2c1ccc2c(/C=C/c3csc(CN4CCOCC4)c3)n[nH]c2c1 [Example A202, (1R,2S)-2-(3-((E)-2-(5-(morpholinomethyl)thiophen-3-yl)vinyl)-1H-indazol-6-yl)spiro[cyclopropane-1,3′-indolin]-2′-one 2,2,2-trifluoroacetate]	–	–
–	> 50	–	COc1ccc2c(c1)[C@]1(C[C@H]1c1ccc3c(/C=C/c4ccc(CN5[C@H](C)CCC[C@@H]5C)cc4)n[nH]c3c1)C(=O)N2 [Example A203, (1R,2S)-(E)-2-(3-(4-((cis-2,6-dimethylpiperidin-1-yl)methyl)styryl)-1H-indazol-6-yl)-5′-methoxyspiro[cyclopropane-1,3′-indolin]-2′-one 2,2,2-trifluoroacetate]	–	–
–	> 50	–	O=C1Nc2ccccc2[C@]12C[C@H]2c1ccc2c(/C=C/c3ccc(OCCN4CCOCC4)cc3)n[nH]c2c1 [Example A204, (1R,2S)-(E)-2-(3-(4-(2-morpholinoethoxy)styryl)-1H-indazol-6-yl)spiro[cyclopropane-1,3′-indolin]-2′-one 2,2,2-trifluoroacetate]	–	–
–	> 50	–	CCN(CC)Cc1ccc(/C=C/c2n[nH]c3cc([C@@H]4C[C@@]45C(=O)Nc4ccc(OC)cc45)ccc23)cc1 [Example A206, (1R,2S)-(E)-2-(3-(4-((diethylamino)methyl)styryl)-1H-indazol-6-yl)-5′-methoxy spiro[cyclopropane-1,3′-indolin]-2′-one 2,2,2-trifluoroacetate]	–	–
–	> 50	–	COc1ccc2c(c1)[C@]1(C[C@H]1c1ccc3c(/C=C/c4cc(F)c(CN(C)C)c(F)c4)n[nH]c3c1)C(=O)N2 [Example A216, (1R,2S)-(E)-2-(3-(4-((dimethylamino)methyl)-3,5-difluorostyryl)-1H-indazol-6-yl)-5′-methoxyspiro[cyclopropane-1,3′-indolin]-2′-one 2,2,2-trifluoroacetate]	–	–
–	> 50	–	O=C1Nc2ccc(F)cc2[C@]12C[C@H]2c1ccc2c(/C=C/c3ccc(CN4CCOCC4)cc3)n[nH]c2c1 [Example A220]	–	–
–	> 50	–	CCN(CC)Cc1c(F)cc(/C=C/c2n[nH]c3cc([C@@H]4C[C@@]45C(=O)Nc4ccccc45)ccc23)cc1F [Example A221, (1R,2S)-(E)-2-(3-(4-((diethylamino)methyl)-3,5-difluorostyryl)-1H-indazol-6-yl)spiro[cyclopropane-1,3′-indolin]-2′-one 2,2,2-trifluoroacetate]	–	–
